US8383637B2, “2-amino-quinazoline derivatives useful as inhibitors of β-secretase (BACE)” (Jansssen Pharmaceutica N.V., priority 2004, dated 2013)
Where “and” joins values, the source holds several entries; their conditions need not be identical. Equal entries are not always repeated. Where two headings read alike, the source gives them in different places.

Legend:
Type in all cases: biochemical
β-secretase(BACE) [1] = biological target: T1, β-secretase(BACE) (Homo sapiens, UniProt P56817); assay: BACE Assay-1 (MCA-substrate, IC50)
T1 construct: purchased Panvera
Method: The following standards are reagents were used in this assay: Sodium Citrate trisodium salt dihydrate (Sigma), Citric Acid monohydrate (Merck), PEG8000 (Sigma), MCA-substrate (Bachem), β-secretase (BACE) (Panvera), 96-well plate zwart (Costar (Elscolab)), StatVal (Bachem).
The following standard assay buffer solution was prepared and used in this assay: 0.05 M, pH 5.0 mixture of sodium citrate trisodium salt dihydrate (9.56 g), citric acid monohydrate (3.68 g) and PEG8000 (0.50 g).
The MCA-substrate stock solution was prepared by mixing 10 mg MCA-substrate with 5 mL DMSO for a final solution concentration of 2.0 mg/mL. The substrate work solution was prepared by mixing 0.1 mL substrate in 1.90 mL assay buffer for a final concentration of 0.05 mM. The β-secretase (BACE) work solution was prepared by mixing 8 μL BACE in 2 mL assay buffer for a final concentration of 10 μg/mL.
The screen procedure for this assay was as follows. 60 μL of assay buffer was pippeted into each well of a 96-well plate. To each well was then pipetted 1 μL of test compound at the selected concentration. To each well was then added 20 μL of the β-secretase work solution and 20 μL of the MCA-substrate stock solution.
The procedure for the blank was as follows. 80 μL of assay buffer was pipetted into each well to be used as a blank control. To each well was then added 1 μL of DMSO and 20 μL of MCA-substrate solution in each well.
The procedure for the positive control was as follows. 60 μL of assay buffer was pipetted into each well to be used as a positive control. To each well was then added 1 μL of DMSO, 20 μL of BACE work solution and 20 μL of MCA-substrate stock solution.
For test compounds, measured at multiple concentrations, the measured T0 and T60 values were used to calculate an IC50 value using Graphpad Software (or PIR).

β-secretase(BACE) [2] = biological target: T1, β-secretase(BACE); assay: BACE Assay-2 (FS1 substrate, IC50 and Ki); details: procedure of Example 159, FS1 substrate
β-secretase(BACE) [3] = biological target: T1, β-secretase(BACE); assay: BACE FS1% Inhibition Assay; details: FS1 substrate; for % Inhibition (FS) 0.3 μM / inhibition at 0.3 µM: 0.3 μM test compound; for inhibition at 0.3 µM: read-out: % Inhibition (FS) 0.3 μM; for % Inhibition (FS) 1 μM / inhibition at 1 µM: 1 μM test compound; for inhibition at 1 µM: read-out: % Inhibition (FS) 1 μM; for % Inhibition (FS) 3 μM / inhibition at 3 µM: 3 μM test compound; for inhibition at 3 µM: read-out: % Inhibition (FS) 3 μM; for inhibition at 10 µM: 10 μM test compound, read-out: % Inhibition (FS) 10 μM
How it was run: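 Percent inhibition at each tested concentration, referenced to enzyme-free blank and vehicle-only positive control. Reaction: compound and BACE (4 μg/mL working stock) mixed 20 min at room temperature before FS1 substrate (300 μg/mL working stock), then 1 h at room temperature.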

[4] = procedure of Example 158, read-out: IC50 μM (158)

T1 sequence (P56817 46-501): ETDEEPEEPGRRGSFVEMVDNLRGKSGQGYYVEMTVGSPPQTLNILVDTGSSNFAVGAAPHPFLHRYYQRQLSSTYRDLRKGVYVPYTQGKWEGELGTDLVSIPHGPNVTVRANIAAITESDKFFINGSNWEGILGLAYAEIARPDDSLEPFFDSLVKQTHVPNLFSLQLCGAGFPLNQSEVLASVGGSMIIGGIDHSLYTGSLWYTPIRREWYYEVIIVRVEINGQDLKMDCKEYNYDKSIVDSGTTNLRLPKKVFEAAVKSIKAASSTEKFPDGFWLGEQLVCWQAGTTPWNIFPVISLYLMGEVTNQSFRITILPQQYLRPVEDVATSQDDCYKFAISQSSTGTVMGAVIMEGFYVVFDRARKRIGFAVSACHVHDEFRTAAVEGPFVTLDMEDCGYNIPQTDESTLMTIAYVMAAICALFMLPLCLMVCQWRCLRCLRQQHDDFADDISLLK

Structure (SMILES) | IC50 (β-secretase(BACE) [1]) [µM] | IC50 (β-secretase(BACE) [1]; [4]) [µM] | Ki (β-secretase(BACE) [2]; Ki μM (159)) | % Inhibition (FS) 0.3 μM (β-secretase(BACE) [3]; 0.3 µM) [%] | inhibition at 0.3 µM (β-secretase(BACE) [3]) [%] | % Inhibition (FS) 1 μM (β-secretase(BACE) [3]; 1 µM) [%] | inhibition at 1 µM (β-secretase(BACE) [3]) [%] | % Inhibition (FS) 3 μM (β-secretase(BACE) [3]; 3 µM) [%] | inhibition at 3 µM (β-secretase(BACE) [3]) [%] | Ki (β-secretase(BACE) [2]; read-out: Ki μM (159)) [µM] | inhibition at 10 µM (β-secretase(BACE) [3]) [%] | % Inhibition (FS) 0.3 μM (β-secretase(BACE) [3]) [%] | % Inhibition (FS) 1 μM (β-secretase(BACE) [3]) [%] | % Inhibition (FS) 3 μM (β-secretase(BACE) [3]) [%]
NC1=Nc2ccc(Oc3ccccc3)cc2CN1CCC(=O)NC1C2CC3CC(C2)CC1C3 (centres unmarked) [Compound 221, N-Adamantan-2-yl-3-(2-amino-6-phenoxy-4H-quinazolin-3-yl) propionamide] | 0.023 | 0.011 | 0.025 µM and 0.029 µM | 110 | 100 | 119 | 115 | 121 | 118 | – | – | – | – | –
CCCCC(CC)C(=O)NCCN1Cc2cc(Oc3ccccc3)ccc2N=C1N (centres unmarked) [Compound 122] | – | 0.19 | – | – | – | – | – | – | 101 | 0.17 | 123 | – | – | –
CN(C(=O)c1cccc(CN2Cc3cc(-c4ccsc4)ccc3N=C2N)c1)C1CCCCC1 [Compound 164] | – | 0.11 | – | – | 67 | – | 96 | – | 109 | 0.1 | – | – | – | –
CN(C(=O)c1cccc(CN2Cc3cc(Sc4ccccc4)ccc3N=C2N)c1)C1CCCCC1 [Compound 476] | – | 0.067 | – | – | 19.9 | – | 66 | – | 102 | 0.28 | – | – | – | –
COc1ccc(C(CCC(=O)N(C)C2CCCCC2)N2Cc3cc(Oc4ccccc4)ccc3N=C2N)cc1 (centres unmarked) [Compound 298] | – | 0.22 | – | – | < 30 | – | 75 | – | 110 | 0.23 | – | – | – | –
NC1=Nc2ccc(Oc3ccccc3)cc2CN1CCNC(=O)C1CCC1 [Compound 130] | – | 0.45 | – | – | – | – | – | – | 101 | 0.21 | 123 | – | – | –
CN(C(=O)c1cccc(CN2Cc3cc(-c4cccc5ccccc45)ccc3N=C2N)c1)C1CCCCC1 [Compound 330] | – | 0.048 | – | – | < 30 | – | 66 | – | 114 | 0.21 | – | – | – | –
CN(C(=O)c1cccc(CN2Cc3cc(-c4ccccc4Br)ccc3N=C2N)c1)C1CCCCC1 [Compound 331] | – | 0.089 | – | – | < 30 | – | 60 | – | 108 | 0.19 | – | – | – | –
CN(C(=O)c1cccc(CN2Cc3cc(-c4ccccc4Cl)ccc3N=C2N)c1)C1CCCCC1 [Compound 260] | – | 0.15 | – | – | 53 | – | 86 | – | 112 | 0.21 | – | – | – | –
CC(C)C(=O)NCCN1Cc2cc(Oc3ccccc3)ccc2N=C1N [Compound 121] | – | 0.58 | – | – | – | – | – | – | 103 | 0.32 | 117 | – | – | –
CCCC(CCC)C(=O)NCC(C1CCCCC1)N1Cc2cc(Oc3ccccc3)ccc2N=C1N (centres unmarked) [Compound 302] | – | 0.05 | – | – | < 30 | – | 72 | – | 108 | 0.14 | – | – | – | –
CN(C(=O)c1cccc(CN2Cc3cc(-c4ccccc4O)ccc3N=C2N)c1)C1CCCCC1 [Compound 169] | – | 0.058 | – | – | 80 | – | 104 | – | 109 | 0.08 | – | – | – | –
CCCC(CCC(=O)N(CC)C1CCCCC1)N1Cc2cc(Oc3ccccc3)ccc2N=C1N (centres unmarked) [Compound 127] | – | 0.16 | – | – | – | – | – | – | 79 | 0.18 | 102 | – | – | –
COc1ccc(NC(=O)C(C)(C)C)c(-c2ccc3c(c2)CN(Cc2cccc(C(=O)N(C)C4CCCCC4)c2)C(N)=N3)c1 [Compound 160] | – | 0.54 | – | – | 51 | – | 78 | – | 102 | 0.12 | – | – | – | –
CC(C)C(=O)NCC(C1CCCCC1)N1Cc2cc(Oc3ccccc3)ccc2N=C1N (centres unmarked) [Compound 301] | – | 0.15 | – | – | – | – | – | – | – | 0.21 | – | <30 | 82 | 106
CN(CCN1Cc2cc(Oc3ccccc3)ccc2N=C1N)C(=O)OC(C)(C)C [Compound 425, [2-(2-Amino-6-phenoxy-4H-quinazolin-3-yl)-ethyl]-methyl-carbamic acid tert-butyl ester] | – | 0.14 | – | – | 46 | – | 85 | – | 111 | 0.074 | – | – | – | –
CN(C(=O)c1cccc(CN2Cc3cc(-c4ccccc4CO)ccc3N=C2N)c1)C1CCCCC1 [Compound 174] | – | 0.085 | – | – | 85 | – | 106 | – | 111 | 0.07 | – | – | – | –
CN(C(=O)c1cccc(CN2Cc3cc(-c4c(Cl)cccc4Cl)ccc3N=C2N)c1)C1CCCCC1 [Compound 259] | – | 0.25 | – | – | < 30 | – | 66 | – | 97 | 0.25 | – | – | – | –
CCCC(CCC(=O)NC1CCCCC1)N1Cc2cc(Oc3ccccc3)ccc2N=C1N (centres unmarked) [Compound 129] | – | 0.1 | – | – | – | – | – | – | 113 | 0.12 | 113 | – | – | –
C[C@H](CNC(=O)C1CCCCC1)N1Cc2cc(Oc3ccccc3)ccc2N=C1N [Compound 495, (R)-Enantiomer of cyclohexanecarboxylic acid [2-(2-amino-6-phenoxy-4H-quinazolin-3-yl)-propyl]-amide] | – | 0.25 | – | – | < 30 | – | 75 | – | 106 | 0.1 | – | – | – | –
Cc1noc(C)c1-c1ccc2c(c1)CN(Cc1cccc(C(=O)N(C)C3CCCCC3)c1)C(N)=N2 [Compound 159] | – | 0.89 | – | – | 34 | – | 65 | – | 92 | 0.28 | – | – | – | –
COc1ccccc1-c1ccc2c(c1)CN(C(CCC(=O)N(C)C1CCCCC1)C1CCCCC1)C(N)=N2 (centres unmarked) [Compound 227] | – | 0.043 | – | – | 86 | – | 109 | – | 116 | 0.065 | – | – | – | –
CCOc1ccccc1-c1ccc2c(c1)CN(Cc1cccc(C(=O)N(C)C3CCCCC3)c1)C(N)=N2 [Compound 329] | – | 0.012 | – | – | 92 | – | 109 | – | 118 | 0.02 | – | – | – | –
NC1=Nc2ccc(Oc3ccccc3)cc2CN1C(CNC(=O)CC1CCCC1)C1CCCCC1 (centres unmarked) [Compound 311] | – | 0.02 | – | – | – | – | – | – | – | 0.05 | – | 74 | 108 | 118
